From US11970515B1, “Crystal form of Brassinosteroid (BR) analogue, and preparation method and use thereof” (CHENGDU NEWSUN CROP SCIENCE CO., LTD., priority 2021, dated 2024)

Experiments:
[1] = Stability test of crystal forms in high-temperature environment at 80° C.±2° C.; type: physicochemical
Description: Appropriate amounts of the crystal form I and crystal form II were separately placed in a high-temperature environment at 80° C.±2° C. for stability experiments, and the experimental results were shown in Table 1.

tobacco seedlings [2] = assay: Promoting growth of tobacco seedlings (leaf spray, leaf area growth rate); type: in vivo; conditions: for Growth-promoting effect (in words): 7 d after treatment; for 7-day leaf area growth rate (%): leaf spray, 7 d
Description: The example of the present disclosure provided use of the novel crystal form I and the novel crystal form II in promoting plant growth, specifically an experiment of promoting growth of tobacco seedlings was taken as an example, the steps were as follows:
In the present disclosure, the novel crystal form I and the novel crystal form II each were prepared with anhydrous ethanol into a 10 mg/ml mother solution, and used immediately during the experiment.
Tobacco seedlings with a seedling age of 7 d were transplanted and planted in a cultivation room, and the seedlings were subjected to recovery for 2 d before testing. After the treatment agent was formulated according to the experimental design, the leaves of the tobacco seedlings were evenly sprayed, and each treatment was repeated 3 times, with 2 plants in each repetition, that is, 6 seedlings in each treatment. […] The RGB AREA_MM parameter (leaf area/mm^2) of the tobacco was recorded with a plant phenotype instrument before and 7 d […], and a growth rate of the leaf area was calculated to evaluate a growth-promoting effect of the drug. The formula for calculating a leaf area growth rate was as follows: Growth rate (%)=(final leaf area−initial leaf area)×100%/initial leaf area

Solubility in ethanol = type: physicochemical; conditions: different temperatures
Description: (§1) 2. Solubility Research • (1) 50 mg of the crystal form I and crystal form II were separately added to a test tube, slowly added with ethanol dropwise at different temperatures while conducting vibration until completely dissolved. Weighing was conducted and a total mass was recorded, converted into volume, expressed as mg/mL. The experimental results were shown in FIG. 11 and FIG. 12. • (2) 50 mg of the crystal form I and crystal form II were separately added to a test tube, slowly added with water dropwise at different temperatures while conducting vibration until completely dissolved. Weighing was conducted and a total mass was recorded, converted into volume, expressed as mg/mL.

corn seeds = assay: Immersing corn seeds to promote germination and growth of corn; type: in vivo; conditions: for Bud vigor index / Root vigor index / Germination rate (%): 7th day; for Germination rate (%): seeds immersed 24 h
Description: The example of the present disclosure provided use of the novel crystal form I and the novel crystal form II in promoting plant growth, specifically an experiment of immersing corn seeds to promote germination and growth of corn was taken as an example, the steps were as follows:
In the present disclosure, the novel crystal form I was prepared with anhydrous ethanol into a 10 mg/ml mother solution, and used immediately during the experiment.
The agents were prepared according to the experimental design. 20 normal plump corn seeds were selected, placed in the agent, and immersed at 26° C. for 24 h. The seeds were washed with water, placed in a culture box and placed in a constant-temperature incubator for germination. The germination was conducted in 2 periods: 14 h of light illumination, at 28° C.; 10 h in the dark, at 25° C., and for 7 d. Each treatment was repeated 3 times. During the whole experiment, 5 ml of water was regularly added with a pipette at 9:00 every day to keep the culture box moist. After 7 days, the germination rate was counted, the shoot length and root length were measured, and the root vigor and shoot vigor were calculated. Germination rate=germinated number of seeds treated on 7th day/total number of treated seeds×100%; Bud vigor index=germination rate of 7th day×seedling bud length of 7th day; Root vigor index=germination rate of 7th day×seedling root length of 7th day.

Solubility in water = type: physicochemical; conditions: different temperatures
Description: as §1

tobacco seedlings [3] = assay: Promoting cold resistance of tobacco (chlorophyll fluorescence after 4° C. cold injury); type: in vivo
Description: The example of the present disclosure provided use of the novel crystal form II in promoting stress resistance of plants, specifically an experiment of promoting cold resistance of tobacco was taken as an example, the steps were as follows:
In the present disclosure, the novel crystal form II was prepared with anhydrous ethanol into a 10 mg/ml mother solution, and used immediately during the experiment.
After the treatment agents were prepared according to Table 6, the leaves of the tobacco seedlings were evenly sprayed in the morning. […] After 1 d of recovery, cold injury (4° C.) treatment was conducted, while other conditions remained the same as those during normal culture. The chlorophyll fluorescence QY-max parameter (theoretical maximum photosynthetic capacity) and Fv/Fm (maximum photon yield of PSII) of tobacco were recorded before drug treatment, after 6 h and 24 h of low-temperature treatment, and after 24 h of recovery at room temperature (25° C.) separately with a plant phenotype instrument.
QY-max represents the theoretical maximum photosynthetic capacity of plants, and the smaller its reduction rate, the better the plant's low-temperature resistance. Fv/Fm-lss represents the maximum photon yield of PSII, similar to QY-max, the smaller its reduction rate, the better the plant's low-temperature resistance. […] Afterwards, each treatment was placed at room temperature (25° C.) for recovery.

[4] = 0.003 ppm, low-temperature (4° C.) treatment for 6 h
[5] = 0.003 ppm, low-temperature (4° C.) treatment for 24 h
[6] = 0.003 ppm, room-temperature (25° C.) recovery for 24 h
[7] = 0.03 ppm, low-temperature (4° C.) treatment for 6 h
[8] = 0.03 ppm, low-temperature (4° C.) treatment for 24 h
[9] = 0.03 ppm, room-temperature (25° C.) recovery for 24 h
[10] = 0.3 ppm, low-temperature (4° C.) treatment for 6 h
[11] = 0.3 ppm, low-temperature (4° C.) treatment for 24 h
[12] = 0.3 ppm, room-temperature (25° C.) recovery for 24 h

SMILES: CC(C)(O)CC[C@@H](O)[C@](C)(O)C1CC[C@@]2(O)[C@H]3CC(=O)[C@@H]4C[C@@H](O)[C@@H](O)C[C@]4(C)[C@H]3CC[C@]12C (single isomer, unassigned) [Novel crystal form I]
- Stability in high-temperature environment (in words) [1]: highly stable in the high-temperature environment, and no crystal form change occurred
- Content (%) ([1]; test time 0 d): 99.98%
- Content of other substances (%) ([1]; test time 0 d): 0.02%
- XRPD ([1]; test time 0 d): Unchanged
- Content (%) ([1]; test time 5 d): 99.93%
- Content of other substances (%) ([1]; test time 5 d): 0.07%
- XRPD ([1]; test time 5 d): Unchanged
- Content (%) ([1]; test time 10 d): 99.96%
- Content of other substances (%) ([1]; test time 10 d): 0.04%
- XRPD ([1]; test time 10 d): Unchanged
- Growth-promoting effect (in words) (tobacco seedlings [2]; 0.003 ppm): obvious growth-promoting effects
- 7-day leaf area growth rate (%) (tobacco seedlings [2]; 0.003 ppm): 179.02 ± 0.15%
- 7-day leaf area growth rate (%) (tobacco seedlings [2]; 0.03 ppm): 166.45 ± 0.18%
- 7-day leaf area growth rate (%) (tobacco seedlings [2]; 0.3 ppm): 145.98 ± 0.39%
- Solubility in ethanol (in words) (Solubility in ethanol): desirable solubility
- Bud vigor index (corn seeds; 0.003 ppm): 7.77 ± 0.36
- Root vigor index (corn seeds; 0.003 ppm): 8.80 ± 0.29
- Germination rate (%) (corn seeds; 0.003 ppm): 72.12 ± 1.15%
- Effect on root and bud vigor indexes versus control CK (in words) (corn seeds; 0.03 ppm): best effect, which was obviously better than that of the control CK
- Germination effect on corn compared with the water control (in words) (corn seeds; 0.03 ppm): germination-promoting effect
- Bud vigor index (corn seeds; 0.03 ppm): 10.93 ± 0.17
- Root vigor index (corn seeds; 0.03 ppm): 10.89 ± 0.24
- Germination rate (%) (corn seeds; 0.03 ppm): 77.34 ± 1.99%
- Bud vigor index (corn seeds; 0.3 ppm): 9.26 ± 0.24
- Root vigor index (corn seeds; 0.3 ppm): 9.77 ± 0.53
- Germination rate (%) (corn seeds; 0.3 ppm): 75.38 ± 2.37%
- Effect on root and bud vigor indexes (in words) (corn seeds; in vivo): effect of improving the root vigor index and bud vigor index
- Solubility in water (in words) (Solubility in water): desirable solubility

SMILES: CC(C)(O)CC[C@@H](O)[C@](C)(O)C1CC[C@@]2(O)[C@H]3CC(=O)[C@@H]4C[C@@H](O)[C@@H](O)C[C@]4(C)[C@H]3CC[C@]12C (single isomer, unassigned) [Novel crystal form II]
- Stability in high-temperature environment (in words) [1]: highly stable in the high-temperature environment, and no crystal form change occurred
- Content (%) ([1]; test time 0 d): 99.87%
- Content of other substances (%) ([1]; test time 0 d): 0.13%
- XRPD ([1]; test time 0 d): Unchanged
- Content (%) ([1]; test time 5 d): 99.84%
- Content of other substances (%) ([1]; test time 5 d): 0.16%
- XRPD ([1]; test time 5 d): Unchanged
- Content (%) ([1]; test time 10 d): 99.87%
- Content of other substances (%) ([1]; test time 10 d): 0.13%
- XRPD ([1]; test time 10 d): Unchanged
- Growth-promoting effect (in words) (tobacco seedlings [2]; 0.003 ppm): obvious growth-promoting effects
- 7-day leaf area growth rate (%) (tobacco seedlings [2]; 0.003 ppm): 169.02 ± 0.26%
- 7-day leaf area growth rate (%) (tobacco seedlings [2]; 0.03 ppm): 153.44 ± 0.19%
- 7-day leaf area growth rate (%) (tobacco seedlings [2]; 0.3 ppm): 150.31 ± 0.39%
- Solubility in ethanol (in words) (Solubility in ethanol): desirable solubility
- Fv/Fm-lss change rate (%) (tobacco seedlings [3]; [4]): −30.1 ± 0.22%
- QY-max change rate (%) (tobacco seedlings [3]; [4]): −10.4 ± 0.13%
- Fv/Fm-lss change rate (%) (tobacco seedlings [3]; [5]): −46.1 ± 0.28%
- QY-max change rate (%) (tobacco seedlings [3]; [5]): −31.0 ± 0.18%
- Fv/Fm-lss change rate (%) (tobacco seedlings [3]; [6]): −16.2 ± 0.27%
- QY-max change rate (%) (tobacco seedlings [3]; [6]): −10.0 ± 0.24%
- Reduction rate of QY-max and Fv/Fm-lss versus water control (in words) (tobacco seedlings [3]; 0.03 ppm, after 6 h of low-temperature treatment): significantly lower than that of the water control
- Recovery effect, comparison of concentrations (in words) (tobacco seedlings [3]; 0.03 ppm, after 24 h of recovery at room temperature): the best
- Fv/Fm-lss change rate (%) (tobacco seedlings [3]; [7]): −14.3 ± 0.13%
- QY-max change rate (%) (tobacco seedlings [3]; [7]): −3.6 ± 0.33%
- Fv/Fm-lss change rate (%) (tobacco seedlings [3]; [8]): −33.4 ± 0.12%
- QY-max change rate (%) (tobacco seedlings [3]; [8]): −27.6 ± 0.16%
- Fv/Fm-lss change rate (%) (tobacco seedlings [3]; [9]): 0.3 ± 0.16%
- QY-max change rate (%) (tobacco seedlings [3]; [9]): −0.6 ± 0.18%
- Fv/Fm-lss change rate (%) (tobacco seedlings [3]; [10]): −26.4 ± 0.27%
- QY-max change rate (%) (tobacco seedlings [3]; [10]): −7.9 ± 0.25%
- Fv/Fm-lss change rate (%) (tobacco seedlings [3]; [11]): −44.4 ± 0.25%
- QY-max change rate (%) (tobacco seedlings [3]; [11]): −30.0 ± 0.27%
- Fv/Fm-lss change rate (%) (tobacco seedlings [3]; [12]): −4.5 ± 0.21%
- QY-max change rate (%) (tobacco seedlings [3]; [12]): −5.2 ± 0.13%
- Recovery effect versus clean water control (in words) (tobacco seedlings [3]; each concentration, after 24 h of recovery at room temperature): better than that of the clean water control
- Low-temperature resistance, summary (in words) (tobacco seedlings [3]; in vivo): bioactivity of anti-low temperature
- Solubility in water (in words) (Solubility in water): desirable solubility
